The target of data set [1] is Serine/threonine-protein kinase B-raf (Homo sapiens, UniProt P15056, V600E). Put plainly: Inhibition of B-Raf V600E mutant (unknown origin) using biotinylated Mek substrate incubated for 60 mins by amplified luminescence proximity homogeneous assay.
The nature of data set [2]: Antitumor activity against human A375 cells xenografted in Nu/Nu mouse assessed as tumor volume level at 1 mg/kg, dosed BID for 14 days commencing on day 19 measured after 14 days post-first dose relative to initial tumor volume. The class given is functional, A-375. On the technique in general: A xenograft is tissue or cells of one species grown in another, often human tumour cells in immunodeficient mice.

Data set [3] can be described thus: Antitumor activity against human A375 cells xenografted in Nu/Nu mouse assessed as tumor volume level at 3 mg/kg, dosed BID for 14 days commencing on day 19 measured after 14 days post-first dose relative to initial tumor volume. The class given is functional, A-375.
The nature of data set [4]: Antitumor activity against human A375 cells xenografted in Nu/Nu mouse assessed as tumor volume level at 10 mg/kg, dosed BID for 14 days commencing on day 19 measured after 14 days post-first dose relative to initial tumor volume. The class given is functional, A-375.
Data set [5] in a line: Antitumor activity against human A375 cells xenografted in Nu/Nu mouse assessed as tumor volume level at 20 mg/kg, dosed BID for 14 days commencing on day 19 measured after 14 days post-first dose relative to initial tumor volume. The class given is functional, A-375.
Data set [6] can be described thus: Hepatic extraction ratio in human liver microsomes at 1 uM in presence of NADPH by LC-MS/MS method. The class given is ADME. The following applies: read-out: ERH. For orientation: Liver microsomes are vesicles of endoplasmic reticulum, rich in cytochrome P450 enzymes.

A value given as a limit tells only on which side of the number the result lay.

One may read the IC50 as the midpoint of a concentration-inhibition curve. A high value points to weaker potency.

Serine/threonine-protein kinase B-raf, sequence (P15056 2-766 V600E limits assumed): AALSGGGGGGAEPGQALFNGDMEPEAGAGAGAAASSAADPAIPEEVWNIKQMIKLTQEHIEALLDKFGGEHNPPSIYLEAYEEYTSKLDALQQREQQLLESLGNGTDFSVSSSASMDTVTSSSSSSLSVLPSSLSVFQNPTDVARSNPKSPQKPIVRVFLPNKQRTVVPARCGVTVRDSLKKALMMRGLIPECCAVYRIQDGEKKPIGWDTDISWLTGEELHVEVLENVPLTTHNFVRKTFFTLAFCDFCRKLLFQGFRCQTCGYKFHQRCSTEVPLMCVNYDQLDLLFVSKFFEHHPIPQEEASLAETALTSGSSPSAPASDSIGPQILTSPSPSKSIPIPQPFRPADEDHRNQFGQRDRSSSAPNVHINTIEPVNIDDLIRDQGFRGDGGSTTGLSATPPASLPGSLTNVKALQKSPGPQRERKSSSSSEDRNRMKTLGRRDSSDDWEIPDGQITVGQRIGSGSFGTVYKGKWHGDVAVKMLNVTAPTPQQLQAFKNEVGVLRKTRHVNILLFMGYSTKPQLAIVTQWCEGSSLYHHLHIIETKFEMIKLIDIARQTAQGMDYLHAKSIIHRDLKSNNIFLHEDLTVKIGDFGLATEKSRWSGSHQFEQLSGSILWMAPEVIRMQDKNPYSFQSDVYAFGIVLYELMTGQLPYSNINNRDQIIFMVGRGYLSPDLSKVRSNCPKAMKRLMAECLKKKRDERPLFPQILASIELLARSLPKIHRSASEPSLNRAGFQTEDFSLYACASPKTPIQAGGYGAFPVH

For the molecule `COC(=O)N[C@@H](C)CNc1nccc(-c2cn(C(C)C)nc2-c2cc(C)cc(NS(C)(=O)=O)c2F)n1`, in data set [1], the IC50 was 0.95 nM. On to `COC(=O)N[C@@H](C)CNc1nccc(-c2cn(C(C)C)nc2-c2cc(Cl)cc(NS(C)(=O)=O)c2F)n1` [ENCORAFENIB], for which the Activity in data set [2] is 20 - 50%; in data set [3], 20%; in data set [4], less than 80%; in data set [5], less than 80%. Consider `COC(=O)N[C@@H](C)CNc1nccc(-c2cn(C(C)C)nc2-c2cc(C)cc(NS(C)(=O)=O)c2Cl)n1`, for which the 50% inhibitory concentration (IC50) in data set [1] is 1 nM.

With `COC(=O)N[C@@H](C)CNc1nccc(-c2cn(C(C)C)nc2-c2cccc(NS(C)(=O)=O)c2F)n1`, the hepatic extraction ratio at 1 µM in data set [6] was less than 0.31.

Source of the values: ChEMBL document CHEMBL3880435, “Compounds and compositions as protein kinase inhibitors” (2013).
